The values below are quoted from earlier work in patent US20050220913A1, “Novel in-expensive and efficient process for isolation of imperatorin, a potent inducible nitric oxide synthase inhibitor and anti-inflammatory drug candidate from Aegle marmelos Correa” (Council of Scientific and Industrial Research, priority 2004, published 2005).

One series deals with HL-60 cells. As to conditions: Kawa et al. 2000.
Series [1] relates to human promyelocytic leukaemia, HL-60 cells. The following applies: at micromolar concentrations; imperatorin from roots of Angelica dahurica; Hyun-Ock et al. 2002.
For series [2], the system named is inducible nitric oxide synthase (iNOS). As to conditions: imperatorin isolated from Saposhnikovia divaricata; Yang et al. 1999.

Regarding `CC(C)=CCOc1c2occc2cc2ccc(=O)oc12` [Imperatorin], the “activity of HL-60 cells by nitro blue tetrazolium (NBT) method” value in the series with HL-60 cells is listed as “strong activity”. Also, the “induction of apoptosis of HL-60 cells” value in series [1] is given as “able to trigger apoptosis of HL-60 cells”. In series [2], the “IC50 value for inhibition of nitrite production” value is 17.3 µg/mL.
